# Measurements taken from ChEMBL document CHEMBL1764960, “Stereochemical investigations of isochromenones and isobenzofuranones isolated from Leptosphaeria sp. KTC 727” (J Nat Prod, 2011).
# Test system: Bipolaris oryzae
# Assay: Antifungal activity against Cochliobolus miyabeanus assessed as hyphal growth inhibition after 36 hrs
# Type: functional, organism-based
row,Compound,IC50
1,COc1cc(O)c2c(c1C)[C@](C)([C@H](C)O)OC2=O,500 µg/mL
2,C=C1OC(=O)c2c(O)cc(OC)c(C)c2[C@@]1(C)O,0.5 µg/mL
3,C=C1OC(=O)c2c(O)cc(O)c(C)c2[C@@]1(C)O,10 µg/mL
4,COc1cc(O)c2c(c1C)[C@](C)(C(C)=O)OC2=O,10 µg/mL
